Values quoted from earlier work as cited in US11466019B2, “Triazolo[4,5-d] pyramidine derivatives and their use as purine receptor antagonists” (Vernalis (R&D) Limited, priority 2008, dated 2022).

Assays:
Parkinsonian patients = details: cited from earlier work
cataleptic responses = details: cited from earlier work

SMILES	mean objective disability scores (Parkinsonian patients; 15 Parkinsonian patients, treated for up to 12 weeks)	patients who reported moderate or marked subjective improvement (Parkinsonian patients; of 15 Parkinsonian patients, treated for up to 12 weeks)	serum theophylline levels (Parkinsonian patients; slow release oral theophylline preparation, after one week, Parkinsonian patients) [mg/L]	anticataleptic effects of a subthreshold dose of L-DOPA plus benserazide (cataleptic responses; combination)	catalepsy induced by haloperidol and reserpine (cataleptic responses; in vivo)	cataleptic responses induced by intracerebroventricular administration of CGS 21680 (cataleptic responses; oral administration)
Cn1c(=O)c2[nH]cnc2n(C)c1=O [theophylline, 1,3-dimethylxanthine]	significant improvements	11	4.44	–	–	–
CCCn1c(=O)c2c(nc(/C=C/c3ccc(OC)c(OC)c3)n2C)n(CCC)c1=O [KF 17837, E-8-(3,4dimethoxystyryl)-1,3-dipropyl-7-methylxanthine]	–	–	–	potentiated the anticataleptic effects	reduced the catalepsy	significantly ameliorated
